Experimental data from PubChem BioAssay (NCI).
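All cell lines were grown in 96-well plates and treated with compound for 48 hours. The concentration for full growth arrest is given as TGI.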 Activity calls are given as the source filed them. Rule as the data show it: active = GI50 below about 0.43 µM; inactive = the rest.

Experiments:
Assay in all cases: NCI tumour cell line growth inhibition, 48 h
SN12C renal = test system: SN12C renal
NCI-H522 lung = test system: NCI-H522 lung
MALME-3M melanoma = test system: MALME-3M melanoma
SK-OV-3 ovarian = test system: SK-OV-3 ovarian
CAKI-1 renal = test system: CAKI-1 renal
HS 578T breast = test system: HS 578T breast
HCT-15 colon = test system: HCT-15 colon
SF-539 CNS = test system: SF-539 CNS
HCC-2998 colon = test system: HCC-2998 colon
SW-620 colon = test system: SW-620 colon
RPMI-8226 leukemia = test system: RPMI-8226 leukemia
COLO 205 colon = test system: COLO 205 colon
HL-60(TB) leukemia = test system: HL-60(TB) leukemia
MDA-N = test system: MDA-N
TK-10 renal = test system: TK-10 renal
MDA-MB-435 = test system: MDA-MB-435
786-0 renal = test system: 786-0 renal
HT29 colon = test system: HT29 colon
NCI/ADR-RES ovarian = test system: NCI/ADR-RES ovarian
KM12 colon = test system: KM12 colon
SK-MEL-5 melanoma = test system: SK-MEL-5 melanoma
UACC-257 melanoma = test system: UACC-257 melanoma
SK-MEL-28 melanoma = test system: SK-MEL-28 melanoma
RXF 393 renal = test system: RXF 393 renal
A498 renal = test system: A498 renal
MCF7 breast = test system: MCF7 breast
OVCAR-3 ovarian = test system: OVCAR-3 ovarian
SNB-19 CNS = test system: SNB-19 CNS
UACC-62 melanoma = test system: UACC-62 melanoma
SR leukemia = test system: SR leukemia
UO-31 renal = test system: UO-31 renal
BT-549 breast = test system: BT-549 breast
SNB-75 CNS = test system: SNB-75 CNS
OVCAR-8 ovarian = test system: OVCAR-8 ovarian
A549 NSCLC = test system: A549 NSCLC
K-562 leukemia = test system: K-562 leukemia
U251 CNS = test system: U251 CNS
OVCAR-5 ovarian = test system: OVCAR-5 ovarian
SK-MEL-2 melanoma = test system: SK-MEL-2 melanoma
SF-295 CNS = test system: SF-295 CNS
HCT-116 colon = test system: HCT-116 colon
NCI-H226 lung = test system: NCI-H226 lung
NCI-H460 lung = test system: NCI-H460 lung
NCI-H23 lung = test system: NCI-H23 lung
HOP-92 NSCLC = test system: HOP-92 NSCLC
DU-145 prostate = test system: DU-145 prostate
PC-3 prostate = test system: PC-3 prostate
ACHN renal = test system: ACHN renal
EKVX NSCLC = test system: EKVX NSCLC
LOX IMVI melanoma = test system: LOX IMVI melanoma
HOP-62 NSCLC = test system: HOP-62 NSCLC
SF-268 CNS = test system: SF-268 CNS
OVCAR-4 ovarian = test system: OVCAR-4 ovarian
T-47D breast = test system: T-47D breast
M14 melanoma = test system: M14 melanoma
MDA-MB-231 breast = test system: MDA-MB-231 breast
MOLT-4 leukemia = test system: MOLT-4 leukemia
CCRF-CEM leukemia = test system: CCRF-CEM leukemia
IGROV1 ovarian = test system: IGROV1 ovarian

Compound `COc1ccc(N2C(=O)CC(=O)N(C(=O)CCCCCCCCC(=O)N3C(=O)CC(=O)N(c4ccc(OC)cc4)C3=S)C2=S)cc1` has a TGI (SN12C renal) greater than 100 µM, a TGI (NCI-H522 lung) greater than 100 µM and a TGI (MALME-3M melanoma) greater than 100 µM. The TGI (SK-OV-3 ovarian) was greater than 100 µM, the TGI (CAKI-1 renal) was greater than 100 µM and the TGI (HS 578T breast) was greater than 100 µM. For the same compound, the TGI (HCT-15 colon) was greater than 100 µM, the TGI (SF-539 CNS) was greater than 100 µM and the TGI (HCC-2998 colon) was greater than 100 µM. For the same compound, the TGI (SW-620 colon) was greater than 100 µM, the TGI (RPMI-8226 leukemia) was greater than 100 µM and the TGI (COLO 205 colon) was greater than 100 µM. For the same compound, the TGI (HL-60(TB) leukemia) was greater than 100 µM, the TGI (MDA-N) was greater than 100 µM and the TGI (TK-10 renal) was greater than 100 µM. For the same compound, the TGI (MDA-MB-435) was greater than 100 µM, the TGI (786-0 renal) was greater than 100 µM and the TGI (HT29 colon) was greater than 100 µM. For the same compound, the TGI (NCI/ADR-RES ovarian) was greater than 100 µM, the TGI (KM12 colon) was greater than 100 µM and the TGI (SK-MEL-5 melanoma) was greater than 100 µM. The TGI (UACC-257 melanoma) was greater than 100 µM, the TGI (SK-MEL-28 melanoma) was greater than 100 µM and the TGI (RXF 393 renal) was greater than 100 µM. The TGI (A498 renal) was greater than 100 µM, the TGI (MCF7 breast) was greater than 100 µM and the TGI (OVCAR-3 ovarian) was greater than 100 µM. It also gave a TGI (SNB-19 CNS) greater than 100 µM, a TGI (UACC-62 melanoma) greater than 100 µM and a TGI (SR leukemia) greater than 100 µM. It also gave a TGI (UO-31 renal) greater than 100 µM, a TGI (BT-549 breast) greater than 100 µM and a TGI (SNB-75 CNS) greater than 100 µM. For the same compound, the TGI (OVCAR-8 ovarian) was greater than 100 µM, the TGI (A549 NSCLC) was greater than 100 µM and the TGI (K-562 leukemia) was greater than 100 µM. The TGI (U251 CNS) was greater than 100 µM, the TGI (OVCAR-5 ovarian) was greater than 100 µM and the TGI (SK-MEL-2 melanoma) was greater than 100 µM. It also gave a TGI (SF-295 CNS) greater than 100 µM, a TGI (HCT-116 colon) greater than 100 µM and a TGI (NCI-H226 lung) greater than 100 µM. It also gave a TGI (NCI-H460 lung) greater than 100 µM, a TGI (NCI-H23 lung) greater than 100 µM and a TGI (HOP-92 NSCLC) greater than 100 µM. It also gave a TGI (DU-145 prostate) greater than 100 µM, a TGI (PC-3 prostate) greater than 100 µM and a TGI (ACHN renal) greater than 100 µM. It also gave a TGI (EKVX NSCLC) greater than 100 µM, a TGI (LOX IMVI melanoma) greater than 100 µM and a TGI (HOP-62 NSCLC) greater than 100 µM. For the same compound, the TGI (SF-268 CNS) was greater than 100 µM, the TGI (OVCAR-4 ovarian) was greater than 100 µM and the TGI (T-47D breast) was greater than 100 µM. The TGI (M14 melanoma) was greater than 100 µM, the TGI (MDA-MB-231 breast) was greater than 100 µM and the TGI (MOLT-4 leukemia) was greater than 100 µM. For the same compound, the TGI (CCRF-CEM leukemia) was greater than 100 µM.

Work on `O=C(c1ccc(Cl)c(Cl)c1)N(Cc1cccnc1)C(=S)N(Cc1cccnc1)C(=O)c1ccc(Cl)c(Cl)c1` yielded a TGI (SN12C renal) of 52.2 µM, a TGI (NCI-H522 lung) of 41.9 µM and a TGI (MALME-3M melanoma) greater than 100 µM. It also gave a TGI (SK-OV-3 ovarian) greater than 100 µM, a TGI (CAKI-1 renal) greater than 100 µM and a TGI (HS 578T breast) greater than 100 µM. It also gave a TGI (HCT-15 colon) of 64.2 µM, a TGI (SF-539 CNS) of 45.5 µM and a TGI (HCC-2998 colon) of 39.8 µM. For the same compound, the TGI (SW-620 colon) was greater than 100 µM, the TGI (RPMI-8226 leukemia) was greater than 100 µM and the TGI (COLO 205 colon) was 32.2 µM. It also gave a TGI (HL-60(TB) leukemia) greater than 100 µM, a TGI (MDA-N) greater than 100 µM and a TGI (TK-10 renal) of 79.8 µM. It also gave a TGI (MDA-MB-435) greater than 100 µM, a TGI (786-0 renal) of 54.2 µM and a TGI (HT29 colon) of 65.1 µM. For the same compound, the TGI (NCI/ADR-RES ovarian) was greater than 100 µM, the TGI (KM12 colon) was greater than 100 µM and the TGI (SK-MEL-5 melanoma) was 75.7 µM. The TGI (UACC-257 melanoma) was 91.5 µM, the TGI (SK-MEL-28 melanoma) was greater than 100 µM and the TGI (RXF 393 renal) was 79.6 µM. It also gave a TGI (A498 renal) of 79.4 µM, a TGI (MCF7 breast) greater than 100 µM and a TGI (OVCAR-3 ovarian) of 78.3 µM. For the same compound, the TGI (SNB-19 CNS) was 88.4 µM, the TGI (UACC-62 melanoma) was greater than 100 µM and the TGI (SR leukemia) was greater than 100 µM. For the same compound, the TGI (UO-31 renal) was 33.2 µM, the TGI (BT-549 breast) was 65.8 µM and the TGI (SNB-75 CNS) was greater than 100 µM. The TGI (OVCAR-8 ovarian) was 84.5 µM, the TGI (A549 NSCLC) was greater than 100 µM and the TGI (K-562 leukemia) was greater than 100 µM. It also gave a TGI (U251 CNS) greater than 100 µM, a TGI (OVCAR-5 ovarian) of 71.7 µM and a TGI (SK-MEL-2 melanoma) of 95.7 µM. It also gave a TGI (SF-295 CNS) of 67.1 µM, a TGI (HCT-116 colon) of 63.4 µM and a TGI (NCI-H226 lung) greater than 100 µM. The TGI (NCI-H460 lung) was greater than 100 µM, the TGI (NCI-H23 lung) was greater than 100 µM and the TGI (HOP-92 NSCLC) was greater than 100 µM. It also gave a TGI (DU-145 prostate) greater than 100 µM, a TGI (PC-3 prostate) of 83.4 µM and a TGI (ACHN renal) of 36.2 µM. For the same compound, the TGI (EKVX NSCLC) was greater than 100 µM, the TGI (LOX IMVI melanoma) was greater than 100 µM and the TGI (HOP-62 NSCLC) was 83.6 µM. It also gave a TGI (SF-268 CNS) greater than 100 µM, a TGI (OVCAR-4 ovarian) greater than 100 µM and a TGI (T-47D breast) greater than 100 µM. For the same compound, the TGI (M14 melanoma) was 52.9 µM, the TGI (MDA-MB-231 breast) was 99.1 µM and the TGI (MOLT-4 leukemia) was greater than 100 µM. The TGI (CCRF-CEM leukemia) was greater than 100 µM.

`O=c1cc(-c2ccc(O)c(O)c2-c2c(O)cc3oc(-c4ccc(O)c(O)c4)cc(=O)c3c2O)oc2cc(O)cc(O)c12` was tested, and the outcome (SN12C renal) was “inactive”, the outcome (NCI-H522 lung) was “inactive” and the outcome (MALME-3M melanoma) was “inactive”. For the same compound, the outcome (SK-OV-3 ovarian) was “inactive”, the outcome (CAKI-1 renal) was “inactive” and the outcome (HS 578T breast) was “inactive”. The outcome (HCT-15 colon) was “inactive”, the outcome (SF-539 CNS) was “inactive” and the outcome (HCC-2998 colon) was “inactive”. For the same compound, the outcome (SW-620 colon) was “inactive”, the outcome (RPMI-8226 leukemia) was “inactive” and the outcome (COLO 205 colon) was “inactive”. For the same compound, the outcome (HL-60(TB) leukemia) was “inactive”, the outcome (MDA-N) was “inactive” and the outcome (TK-10 renal) was “inactive”. The outcome (MDA-MB-435) was “inactive”, the outcome (786-0 renal) was “inactive” and the outcome (HT29 colon) was “inactive”. The outcome (NCI/ADR-RES ovarian) was “inactive”, the outcome (KM12 colon) was “inactive” and the outcome (SK-MEL-5 melanoma) was “inactive”. The outcome (UACC-257 melanoma) was “inactive”, the outcome (SK-MEL-28 melanoma) was “inactive” and the outcome (RXF 393 renal) was “inactive”. The outcome (A498 renal) was “inactive”, the outcome (MCF7 breast) was “inactive” and the outcome (OVCAR-3 ovarian) was “inactive”. The outcome (SNB-19 CNS) was “inactive”, the outcome (UACC-62 melanoma) was “inactive” and the outcome (SR leukemia) was “inactive”. The outcome (UO-31 renal) was “inactive”, the outcome (BT-549 breast) was “inactive” and the outcome (SNB-75 CNS) was “inactive”. The outcome (OVCAR-8 ovarian) was “inactive”, the outcome (A549 NSCLC) was “inactive” and the outcome (K-562 leukemia) was “inactive”. For the same compound, the outcome (U251 CNS) was “inactive”, the outcome (OVCAR-5 ovarian) was “inactive” and the outcome (SK-MEL-2 melanoma) was “inactive”. For the same compound, the outcome (SF-295 CNS) was “inactive”, the outcome (HCT-116 colon) was “inactive” and the outcome (NCI-H226 lung) was “inactive”. For the same compound, the outcome (NCI-H23 lung) was “inactive”, the outcome (HOP-92 NSCLC) was “inactive” and the outcome (DU-145 prostate) was “inactive”. The outcome (PC-3 prostate) was “inactive”, the outcome (ACHN renal) was “inactive” and the outcome (EKVX NSCLC) was “inactive”. For the same compound, the outcome (LOX IMVI melanoma) was “inactive”, the outcome (HOP-62 NSCLC) was “inactive” and the outcome (IGROV1 ovarian) was “inactive”. The outcome (SF-268 CNS) was “inactive”, the outcome (OVCAR-4 ovarian) was “inactive” and the outcome (T-47D breast) was “inactive”. For the same compound, the outcome (M14 melanoma) was “inactive”, the outcome (MDA-MB-231 breast) was “inactive” and the outcome (CCRF-CEM leukemia) was “inactive”.
